Data as given in patent US12577532B2, “Xeno-free and transgene-free reprograming of mesenchymal stem cells toward neural progenitor cells” (UNIVERSITY OF CENTRAL FLORIDA RESEARCH FOUNDATION, INC., priority 2019, dated 2026).

Key:
MSC = test: Reprogramming of MSCs toward neural progenitor spheres (neurosphere production); format: cell-based
Procedure: MSC media contains DMEM F:12, 10% KSR, 5% Glutamax, 5% NNEA, 1% Penicillin/streptomycin. We used 12 well treated plates for production.
MSCs are seeded in culture media and allowed to grow up under serum-free conditions until 80% confluence on adherent conditions using laminin as coat.
At stage 1, fresh media and NSC exosomes (and in two methodologies also we used pluripotent cells to enhance de-differentiation) as a source of linage specific signals, are provided to the cultured MSCs (typically following decitabine treatment), and exposed to NSC exosomes for 1-5 days. Following stage 1, (typically at day 5) stage 2 involves switching out media and NSC exosomes and exposing the cells to the fresh media and NSC exosomes for 5-15 days. After stage 2, (typically at day 15 from the start of stage 1) stage 3 involves switching out media and NSC exosomes with fresh media lacking NSC exosomes and allowing the cells to grow for 5-7 days. After stage 3, (typically at day 20-22 from the start of stage 1), neural progenitor spheres (the primary colonies) are isolated from the culture. After isolation occurs, the neurospheres are picked to keep on suspension for expansion and experimentation. […]

iNSC-MSC = test: Differentiation potential of iNSC-MSC under serum free conditions (immunofluorescence); format: cell-based; settings: methods using decitabine (method 2 & 4) versus methods without
Excerpt: The resultant cells of the four methods express neural differentiation markers Bill, GFAP and NeuN, especially in the surrounded areas of the spheres. On the other hand, they keep NSC markers Sox2, Sox1 and CD90 on the spheres. […] All nuclei were counterstained with DAPI. Scale bar, 50 μm.

SMILES: Nc1ncn([C@H]2C[C@H](O)[C@@H](CO)O2)c(=O)n1 [decitabine, 5-aza-2′-deoxycytidine]
- number of primary neurospheres produced (MSC; MSC cultured with NSC exosomes, day 21 of production (FIG. 2B)): enhances the number of spheres produced
- spheres produced (MSC; MSC treated without NSC exosomes): no spheres were found produced
- immunofluorescence intensities for BII tubulin (iNSC-MSC): significant less iimmunofluorescence intensities
